Experimental data reported in patent US6342509B1, “Piperidine quaternary salts- CCR- 3 receptor antagonists” (Syntex (U.S.A.) LLC, priority 1998, dated 2002).

Key:
[1] = molecular target: T1, CCR-3 receptor (Homo sapiens, UniProt P51677); assay: CCR-3 Receptor Binding Assay in vitro (inhibition of 125I eotaxin binding to CCR-3 L1.2 transfectant cells); conditions: CCR-3 L1.2 transfected cells, 1 h at room temperature, read-out: IC50 (concentration of test compound required to reduce 125I-eotaxin binding to the CCR-3 L1.2 transfected cells by 50%)
T1 construct: host or cells: L1.2 (murine pre-B lymphoma line) CCR-3 transfectant cells
T1 sequence (P51677 1-355): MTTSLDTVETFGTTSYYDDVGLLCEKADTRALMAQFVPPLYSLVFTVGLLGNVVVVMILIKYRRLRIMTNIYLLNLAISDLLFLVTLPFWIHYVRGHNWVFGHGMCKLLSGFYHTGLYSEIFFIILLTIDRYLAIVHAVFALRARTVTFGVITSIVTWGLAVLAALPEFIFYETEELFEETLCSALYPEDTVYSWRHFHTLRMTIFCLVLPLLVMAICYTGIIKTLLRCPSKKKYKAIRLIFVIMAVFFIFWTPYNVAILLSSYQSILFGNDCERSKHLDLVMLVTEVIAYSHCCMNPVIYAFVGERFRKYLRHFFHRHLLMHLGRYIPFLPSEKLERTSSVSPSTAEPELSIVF
Method: The CCR-3 antagonistic activity of the compounds of the invention was determined by their ability to inhibit the binding of ^125I eotaxin to CCR-3 L1.2 transfectant cells obtained from leukoSite (Cambridge, Mass.).
The assay was performed in Costar 96-well polypropylene round bottom plates. Test compounds were dissolved in DMSO and then diluted with binding buffer (50 mM HEPES, 1 mM CaCl2, 5 mM MgCl2, 0.5% bovine serum albumin, 0.02% sodium azide, pH 7.24) such that the final DMSO concentration was 2%. 25 μl of the test solution or only buffer with DMSO (control samples) was added to each well, followed by the addition of 25 μl of ^125I-eotaxin ([…]) (NEX314, New England Nuclear, Boston, Mass.) and […] of the CCR-3 L1.2 transfected cells in 25 μl binding buffer. The final reaction volume was 75 μl.
After incubating the reaction mixture for 1 h at room temperature, the reaction was terminated by filtering the reaction mixture through polyethylenimine treated Packard Unifilter GF/C filter plate (Packard, Chicago, Ill.). The filters were washed four times with ice cold wash buffer containing 10 mm HEPES and 0.5M sodium chloride (pH 7.2) and dried at 65° C. for approximately 10 min. 25 μl/well of Microscint-20™ scintillation fluid (Packard) was added and the radioactivity retained on the filters was determined by using the Packard TopCount™.
The IC50 value (concentration of test compound required to reduce ^125I-eotaxin binding to the CCR-3 L 1.2 transfected cells by 50%) for representative compounds of the invention was: […]

SMILES | melting point | IC50 [1]
CCc1ccccc1NC(=O)N[C@@H](C[N+]1(CC)CCC(Cc2ccc(Cl)c(Cl)c2)CC1)C(C)(C)C (some centres unmarked) [Cpd 12] | – | 198 nM
COc1cc(NC(=O)NCC[N+]2(C)CCC(Cc3ccc(Cl)c(Cl)c3)CC2)cc(OC)c1OC.[I-] (centres unmarked) [Cpd 19, 4-(3,4-dichlorobenzyl)-1-methyl-1-{2-[(3,4,5-trimethoxyphenyl)ureido]ethyl}piperidinium iodide] | 102 to 108 °C | –

Other lines, results leading:

melting point | IC50 [1] | SMILES
123.7 to 138 °C | – | COc1cc(NC(=O)NC(C[N+]2(C)CCC(Cc3ccc(Cl)c(Cl)c3)CC2)C(C)C)cc(OC)c1OC.[Cl-] (centres unmarked)
– | 210 nM | CC[N+]1(C[C@H](NC(=O)Nc2cc(OC)c(OC)c(OC)c2)C(C)C)CCC(Cc2ccc(Cl)c(Cl)c2)CC1 (some centres unmarked) [Cpd 1, 4-(3,4-Dichlorobenzyl)-1-ethyl-1-{3-methyl-2-[3-(3,4,5-trimethoxyphenyl)-ureido]butyl]piperidinium iodide]
– | 2320 nM | COc1cc(NC(=O)NC(C[N+]2(C)CCC(Cc3ccc(Cl)c(Cl)c3)CC2)C(C)C)cc(OC)c1OC (centres unmarked) [Cpd 14, 4-(3,4-dichlorobenzyl)-1-methyl-1-{3-methyl-2-[3-(3,4,5-trimethoxyphenyl)ureido]butyl}piperidinium iodide]
